Among the data in the supplement of paper PMC10307832 are relative viability values, retold here.

Compound in the assay: OCc1c[nH]c2ccccc12 [Indole-3-carbinol] + Cc1nc(NC(=O)N2CCC[C@H]2C(N)=O)sc1-c1ccnc(C(C)(C)C(F)(F)F)c1 [Alpelisib] (partner 2 µM)
Briefly: relative viability (nuclei count vs DMSO), 5 days (fraction); higher = more cells survive. Summed up:
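Relative viability is defined as nuclei in treated wells over nuclei in vehicle wells. Duplicate plates were run and medians reported. Lung cancer cell lines in 1536-well plates were dosed by pin tool one day after seeding, with one drug or with a fixed anchor-drug dose plus five library-drug doses (not always all listed) in √10 steps, and nuclei were counted after 5 days.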

With NCI-H838, the relative viability runs as follows: (first compound 0.253 µM) 1.04; (first compound 0.8 µM) 1.05; (first compound 2.53 µM) 1.01; (first compound 8 µM) 0.975.

As for NCI-H3122, the relative viability (first compound 0.253 µM) was found to be 0.878, the relative viability (first compound 0.8 µM) was 0.879, the relative viability (first compound 2.53 µM) worked out at 0.855 and the relative viability (first compound 8 µM) is 0.74.

In the case of SK-MES-1, the relative viability stood at 0.908 (first compound 0.253 µM), 0.979 (first compound 0.8 µM), 0.833 (first compound 2.53 µM) and 0.764 (first compound 8 µM).

Turning to NCI-H1944, the relative viability came to 0.871 (first compound 0.253 µM), 0.805 (first compound 0.8 µM), 0.725 (first compound 2.53 µM) and 0.822 (first compound 8 µM).

As to LK-2, the relative viability was determined as 1.11 (first compound 0.253 µM), 1.02 (first compound 0.8 µM), 1.25 (first compound 2.53 µM) and 1.05 (first compound 8 µM).

For PC-3 [JPC-3], the relative viability (first compound 0.253 µM) was 1.08, the relative viability (first compound 0.8 µM) was 1.13, the relative viability (first compound 2.53 µM) came out at 1.03 and the relative viability (first compound 8 µM) turned out to be 0.967.

With COR-L23, the relative viability by setting is: (first compound 0.253 µM) 0.818; (first compound 0.8 µM) 1.06; (first compound 2.53 µM) 0.673; (first compound 8 µM) 0.601.

With NCI-H1355, the relative viability was found to be 0.809 (first compound 0.253 µM), 0.875 (first compound 0.8 µM), 0.766 (first compound 2.53 µM) and 0.672 (first compound 8 µM).

On to NCI-H460, for which the relative viability is, setting by setting: (first compound 0.253 µM) 0.458; (first compound 0.8 µM) 0.457; (first compound 2.53 µM) 0.563; (first compound 8 µM) 0.517.

In the case of NCI-H1993, the relative viability reads like this: (first compound 0.253 µM) 0.723; (first compound 0.8 µM) 0.663; (first compound 2.53 µM) 0.631; (first compound 8 µM) 0.674.

In the case of HCC-15, the relative viability by setting is: (first compound 0.253 µM) 0.824; (first compound 0.8 µM) 0.986; (first compound 2.53 µM) 0.987; (first compound 8 µM) 0.848.

For the cell line NCI-H23, the relative viability was found to be 0.618 (first compound 0.253 µM), 0.723 (first compound 0.8 µM), 0.637 (first compound 2.53 µM) and 0.629 (first compound 8 µM).

NCI-H1395: the relative viability (first compound 0.253 µM) came to 1.31, the relative viability (first compound 0.8 µM) was 0.984, the relative viability (first compound 2.53 µM) was found to be 0.983 and the relative viability (first compound 8 µM) was found to be 1.02.

As for NCI-H1666, the relative viability is, setting by setting: (first compound 0.253 µM) 0.804; (first compound 0.8 µM) 0.998; (first compound 2.53 µM) 0.906; (first compound 8 µM) 0.916.

With NCI-H2405, the relative viability by setting is: (first compound 0.253 µM) 0.901; (first compound 0.8 µM) 0.661; (first compound 2.53 µM) 0.988; (first compound 8 µM) 0.749.

Consider NCI-H2009, for which the relative viability was determined as 1.17 (first compound 0.253 µM), 1.23 (first compound 0.8 µM), 1.16 (first compound 2.53 µM) and 1.11 (first compound 8 µM).

For HCC-78, the relative viability (first compound 0.253 µM) was 0.346, the relative viability (first compound 0.8 µM) stood at 0.309, the relative viability (first compound 2.53 µM) came to 0.269 and the relative viability (first compound 8 µM) worked out at 0.334.

Regarding NCI-H2170, the relative viability reads like this: (first compound 0.253 µM) 0.794; (first compound 0.8 µM) 0.815; (first compound 2.53 µM) 0.738; (first compound 8 µM) 0.81.

NCI-H1793: the relative viability runs as follows: (first compound 0.253 µM) 0.779; (first compound 0.8 µM) 0.768; (first compound 2.53 µM) 0.649; (first compound 8 µM) 0.754.

As to HCC-366, the relative viability (first compound 0.253 µM) came to 0.505, the relative viability (first compound 0.8 µM) stood at 0.264, the relative viability (first compound 2.53 µM) is 0.48 and the relative viability (first compound 8 µM) was determined as 0.381.

For NCI-H1651, the relative viability (first compound 0.253 µM) was determined as 0.744, the relative viability (first compound 0.8 µM) turned out to be 0.97, the relative viability (first compound 2.53 µM) is 0.954 and the relative viability (first compound 8 µM) worked out at 0.895.

Take LC-2-ad: the relative viability was found to be 0.91 (first compound 0.253 µM), 0.874 (first compound 0.8 µM), 0.945 (first compound 2.53 µM) and 0.856 (first compound 8 µM).

As to HCC-827, the relative viability was 0.911 (first compound 0.253 µM), 1 (first compound 0.8 µM), 0.99 (first compound 2.53 µM) and 0.985 (first compound 8 µM).

With SK-LU-1, the relative viability reads like this: (first compound 0.253 µM) 1.01; (first compound 0.8 µM) 1.03; (first compound 2.53 µM) 1.07; (first compound 8 µM) 0.99.

For ABC-1, the relative viability is 0.923 (first compound 0.253 µM), 1.2 (first compound 0.8 µM), 1.01 (first compound 2.53 µM) and 0.923 (first compound 8 µM).

Consider NCI-H1703, for which the relative viability turned out to be 0.3 (first compound 0.253 µM), 0.4 (first compound 0.8 µM), 0.322 (first compound 2.53 µM) and 0.332 (first compound 8 µM).

Consider COR-L 105, for which the relative viability reads like this: (first compound 0.253 µM) 1.07; (first compound 0.8 µM) 1.21; (first compound 2.53 µM) 0.925; (first compound 8 µM) 0.979.

As for LOU-NH91, the relative viability came to 0.746 (first compound 0.253 µM), 0.706 (first compound 0.8 µM), 0.703 (first compound 2.53 µM) and 0.728 (first compound 8 µM).

Take NCI-H661: the relative viability came to 0.793 (first compound 0.253 µM), 0.502 (first compound 0.8 µM), 0.74 (first compound 2.53 µM) and 0.594 (first compound 8 µM).

With LU99A, the relative viability (first compound 0.253 µM) came to 0.508, the relative viability (first compound 0.8 µM) worked out at 0.548, the relative viability (first compound 2.53 µM) amounted to 0.582 and the relative viability (first compound 8 µM) stood at 0.451.

Take SW 1573: the relative viability runs as follows: (first compound 0.253 µM) 0.724; (first compound 0.8 µM) 0.833; (first compound 2.53 µM) 0.822; (first compound 8 µM) 0.761.

For HOP-62, the relative viability was 1.01 (first compound 0.253 µM), 0.795 (first compound 0.8 µM), 0.867 (first compound 2.53 µM) and 0.929 (first compound 8 µM).

On to UMC-11, for which the relative viability came out at 0.933 (first compound 0.253 µM), 1.02 (first compound 0.8 µM), 0.981 (first compound 2.53 µM) and 0.955 (first compound 8 µM).

Regarding LCLC-103H, the relative viability came to 0.869 (first compound 0.253 µM), 0.882 (first compound 0.8 µM), 0.923 (first compound 2.53 µM) and 0.899 (first compound 8 µM).

For NCI-H1734, the relative viability reads like this: (first compound 0.253 µM) 0.692; (first compound 0.8 µM) 0.725; (first compound 2.53 µM) 0.719; (first compound 8 µM) 0.674.
